Measurements as given in patent US5989326A, “Dyes for ink jet printing” (Ilford Imaging Switzerland GmbH, priority 1997, dated 1999).
Values joined by “and” are separate entries in the source; they are usually repeats but may differ in a detail not shown here. Equal values may be shown once.

Tests used:
[1] = Absorption maximum in water; assay type: physicochemical
Source text: The absorption maxima and the results of the tests (B) to (D) are reported in Table 6 for the dyes of the invention and the comparative values for previously known disazo dyes in Table 7.

[2] = Dye solubility in deionised water; assay type: physicochemical; details: for Solubility: deionised water, stirred 1 hour at 50° C., cooled to 20° C.; for Solubility, comparison in words: versus previously known black disazo dyes 12 and 14
Experimental: The dye was dispersed or solubilised in deionised water and the dispersion or solution was stirred for one hour at 50° C. Then the mixture was cooled down to 20° C., centrifuged and filtered. The solubility of the dye was calculated a) from UV/VIS spectral data of the mother liquor (solution) or b) based on the dried filter residue.

| SMILES | HD max in water [1] | Solubility [2] | Solubility, comparison in words [2] |
| --- | --- | --- | --- |
| COc1cc(N=Nc2cccc(C(=O)O)c2)c(C)cc1N=Nc1c(S(=O)(=O)O)cc2ccc(N)cc2c1O [Compound 15, reference compound] | 557 nm |  |  |
| Cc1cc(N=Nc2c(S(=O)(=O)O)cc3ccc(NCCS(=O)(=O)O)cc3c2O)c(OCCO)cc1N=Nc1cccc(S(=O)(=O)O)c1 [Compound 2] |  | > 20 g per 100 ml | much higher solubility |
| COc1cc(N=Nc2ccc3c(S(=O)(=O)O)cc(S(=O)(=O)O)cc3c2)c(C)cc1N=Nc1c(S(=O)(=O)O)cc2ccc(NCCS(=O)(=O)O)cc2c1O [Compound 6] | 575 nm | > 20 g per 100 ml | much higher solubility |
| Cc1cc(N=Nc2c(S(=O)(=O)O)cc3ccc(NCCS(=O)(=O)O)cc3c2O)c(OCCO)cc1N=Nc1cc(S(=O)(=O)O)c2cccc(S(=O)(=O)O)c2c1 [Compound 5] | 583 nm |  |  |
| COc1cc(N=Nc2cccc(C(=O)O)c2)c(NC(C)=O)cc1N=Nc1c(S(=O)(=O)O)cc2ccc(NCCC(=O)O)cc2c1O [Compound 13, reference compound] | 488 nm |  |  |
| COc1cc(N=Nc2c(S(=O)(=O)O)cc3ccc(Nc4ccc(C(=O)O)cc4)cc3c2O)c(OC)cc1N=Nc1ccc(C(=O)O)cc1 [Compound 14, reference compound] | 584 nm | 17 g per 100 ml |  |
| COc1cc(N=Nc2cccc(C(=O)O)c2)c(NC(C)=O)cc1N=Nc1c(S(=O)(=O)O)cc2ccc(Nc3ccc(C(=O)O)cc3)cc2c1O [Compound 12, reference compound] | 498 nm | 3.6 g per 100 ml |  |
| COc1cc(N=Nc2c(S(=O)(=O)O)cc3ccc(NCCS(=O)(=O)O)cc3c2O)c(OC)cc1N=Nc1cc(S(=O)(=O)O)c2cccc(S(=O)(=O)O)c2c1 [Compound 7] | 595 nm and 491 nm |  |  |
| COc1cc(N=Nc2cc(S(=O)(=O)O)c3cccc(S(=O)(=O)O)c3c2)c(C)cc1N=Nc1c(S(=O)(=O)O)cc2ccc(NCCS(=O)(=O)O)cc2c1O [Compound 4] | 584 nm | > 20 g per 100 ml | much higher solubility |
| COc1cc(N=Nc2cccc(C(=O)O)c2)c(NC(C)=O)cc1N=Nc1c(S(=O)(=O)O)cc2ccc(N)cc2c1O [Compound 11, reference compound] | 557 nm |  |  |
| COc1cc(N=Nc2cccc(S(=O)(=O)O)c2)c(C)cc1N=Nc1c(S(=O)(=O)O)cc2ccc(NCCS(=O)(=O)O)cc2c1O [Compound 1] | 569 nm |  |  |
| Cc1cc(N=Nc2c(S(=O)(=O)O)cc3ccc(Nc4cccc(S(=O)(=O)O)c4)cc3c2O)ccc1N=Nc1cc(S(=O)(=O)O)c2cccc(S(=O)(=O)O)c2c1 [Compound 10, reference compound] | 559 nm |  |  |
